# Values of other authors in patent US7122195B2, “Mutant mycobacteria for use in therapy” (priority 2000, dated 2006).
# Tested on: M. tuberculosis complex
structure (smiles),measurement,value
Cc1ncc([N+](=O)[O-])n1CCO [Metronidazole],Activity on anaerobic grown M. tuberculosis complex,acts exclusively on anaerobic grown
same,Effect on growth of aerobic grown cultures,does not affect the growth
